According to patent US20090162413A1 (priority 1998, published 2009):
Read-outs that look alike come from different tables or passages of the source.

Experiments:
[1] = tested on: porcine coronary arteries (neointimal hyperplasia); experiment: porcine coronary stent model, zotarolimus-eluting BiodivYsio PC stent vs polymer only stent, 28 days (Example 3); format: in vivo; conditions: stent eluting zotarolimus from a polymer, porcine coronary artery
[2] = release of zotarolimus from 15 mm BiodivYsio drug delivery stents (Example 5); format: physicochemical; conditions: 15 mm BiodivYsio stents
Procedure: To load the stents with drug, a solution of zotarolimus in ethanol at a concentration of 50 mg/ml was prepared and dispensed into twelve vials. Twelve individual polymer-coated stents were placed on fixtures designed to hold the stent in a vertical position and the stents were immersed vertically in the drug solution for five minutes. The stents and fixtures were removed from the vials and excess drug solution was blotted away by contacting the stents with an absorbent material. The stents were then allowed to dry in air for 30 minutes in an inverted vertical position.
The stents were removed from the fixtures, and each stent was placed into 50/50 acetonitrile/phosphate buffer (pH 5.1, 2.0 ml) and sonicated for one hour. The stents were removed from the solution and solutions were assayed for concentration of drug, which allowed calculation of the amount of drug originally on the stents. This method was independently shown to remove at least 95% of the drug from the stent coating. On average, the stents included 120±9 micrograms of drug.
The drug-loaded stents were placed on the fixtures and placed into 0.01 M phosphate buffer (pH=6.0, 1.9 ml) in individual vials. These samples were placed onto a Eberbach shaker set at low speed to provide back-and-forth agitation. To avoid approaching drug saturation in the buffer, the stents were transferred periodically to fresh buffer vials at the following points: 15, 30, 45, 60, 120, 135, 150, 165, 180, 240, 390 minutes. The dissolution buffer vials were assayed by HPLC for the drug concentration at the end of the drug release period studied. The data, represented as % cumulative release of the drug as a function of time, is shown in tabular form below (Table 7): […]

[3] = Phase 1 single escalating intravenous dose safety and pharmacokinetics (Example 6); format: in vivo, human; conditions: for β: elimination rate constant; for tolerability: single IV doses of 100 to 900 μg
Procedure: In the present, first-time-in-man study, the safety and pharmacokinetics of zotarolimus were investigated following intravenous bolus administration of zotarolimus over a 100 to 900 μg dose range. The intravenous bolus dose administration would mimic the most rapid unexpected release of zotarolimus from drug-coated stents in vivo.
This was a Phase 1, single escalating dose, double-blind, randomized, placebo-controlled, single-center study. Sixty (60) adult healthy males were divided into 5 IV dose groups of 100, 300, 500, 700, and 900 μg.
Subjects were randomly assigned to receive a single intravenous dose of zotarolimus or a matching intravenous placebo under fasting conditions, as shown in the dosing scheme shown in Table 9.
Higher doses were administered after evaluating the safety data from the preceding lower dose groups. The treatment groups were separated by at least 7 days. For safety reasons, each treatment group was divided into two cohorts of six subjects and the doses of the two cohorts of a group were separated by at least 1 day.
Doses were administered as IV bolus over 3 minutes, with 8 subjects. Four subjects received zotarolimus and 4 subjects received placebo in each dose group. Blood concentrations of zotarolimus were sampled for 168 hours and measured using LC-MS/MS with a LOQ of 0.20 ng/mL
Seven (7)-mL blood samples were collected by venipuncture into evacuated collection tubes containing edetic acid (EDTA) prior to dosing (0 hour) and at 0.083 (5 min), 0.25, 0.5, 1, 2, 4, 8, 12, 16, 24, 36, 48, 72, 96, 120, 144, and 168 hours after dosing on Study Day 1.
Blood concentrations of zotarolimus were determined using a validated liquid/liquid extraction HPLC tandem mass spectrometric method (LC-MS/MS) (Ji et al., 2004). The lower limit of quantification of zotarolimus was 0.20 ng/mL using 0.3 mL blood sample. All calibration curves had coefficient of determination (r^2) values greater than or equal to 0.9923.
Safety was evaluated based on adverse event, physical examination, vital signs, ECG, injection site and laboratory tests assessments.
Pharmacokinetic parameter values of zotarolimus were estimated using noncompartmental methods.
To investigate the questions of dose proportionality and linear pharmacokinetics, an analysis of covariance (ANCOVA) was performed. Subjects were classified by dose level, and body weight was a covariate. The variables analyzed included β, Vdβ, dose-normalized C5, and logarithms of dose-normalized AUC0-last and dose-normalized AUC0-inf. The primary test of the hypothesis of invariance with dose was a test on dose-level effects with good power for a monotonic function of dose. In addition, the highest and lowest dose levels were compared within the framework of the ANCOVA

[4] = single IV bolus 100 μg, mean ± SD
[5] = single IV bolus 300 μg, mean ± SD
[6] = single IV bolus 500 μg, mean ± SD
[7] = single IV bolus 700 μg, mean ± SD
[8] = single IV bolus 900 μg, mean ± SD

Compound: CO[C@H]1C[C@@H]2CC[C@@H](C)[C@@](O)(O2)C(=O)C(=O)N2CCCC[C@H]2C(=O)O[C@H]([C@H](C)C[C@@H]2CC[C@H](n3cnnn3)[C@H](OC)C2)CC(=O)[C@H](C)/C=C(\C)[C@@H](O)[C@@H](OC)C(=O)[C@H](C)C[C@H](C)/C=C/C=C/C=C/1C [zotarolimus]
- neointimal hyperplasia [1]: reduction in neointimal hyperplasia
- % Cumulative Release of Drug ([2]; 0.01 M phosphate buffer pH 6.0, 15 min): 0.3%
- % Cumulative Release of Drug ([2]; 0.01 M phosphate buffer pH 6.0, 30 min): 1.1%
- % Cumulative Release of Drug ([2]; 0.01 M phosphate buffer pH 6.0, 45 min): 2.1%
- % Cumulative Release of Drug ([2]; 0.01 M phosphate buffer pH 6.0, 60 min): 3.2%
- % Cumulative Release of Drug ([2]; 0.01 M phosphate buffer pH 6.0, 120 min): 4.3%
- % Cumulative Release of Drug ([2]; 0.01 M phosphate buffer pH 6.0, 135 min): 5.9%
- % Cumulative Release of Drug ([2]; 0.01 M phosphate buffer pH 6.0, 150 min): 6.3%
- % Cumulative Release of Drug ([2]; 0.01 M phosphate buffer pH 6.0, 165 min): 6.8%
- % Cumulative Release of Drug ([2]; 0.01 M phosphate buffer pH 6.0, 180 min): 7.4%
- % Cumulative Release of Drug ([2]; 0.01 M phosphate buffer pH 6.0, 240 min): 10.8%
- % Cumulative Release of Drug ([2]; 0.01 M phosphate buffer pH 6.0, 390 min): 13.2%
- dose proportionality of pharmacokinetics ([3]; IV, 100-900 μg dose range, with respect to C5 and AUC0-inf): dose-proportional
- clearance ([3]; male, human, whole blood, range of means over single IV doses 100-900 μg, read-out: mean clearance): 48.3 to 59.2 mL/min
- Vd ([3]; male, human, whole blood, range of means over single IV doses 100-900 μg, read-out: mean volume of distribution): 113 to 202 L
- half-life ([3]; male, human, whole blood, range of means over the studied single IV doses 100-900 μg, read-out: mean half-life): 26 to 40.2 h
- half-life ([3]; male, human, whole blood, single IV bolus 100 μg, harmonic mean ± pseudo-standard deviation, read-out: t1/2 (converted)): 26 ± 6 h
- AUC(0-t) ([3]; male, human, whole blood, single IV bolus 100 μg, mean ± SD): 0.0246 ± 0.00589 µg·h/mL
- AUC(0-inf) ([3]; male, human, whole blood, single IV bolus 100 μg, mean ± SD, read-out: AUC0-inf): 0.0353 ± 0.00615 µg·h/mL
- clearance ([3]; male, human, whole blood, single IV bolus 100 μg, mean ± SD, read-out: CL (converted)): 48.3 mL/min
- half-life ([3]; male, human, whole blood, single IV bolus 300 μg, harmonic mean ± pseudo-standard deviation, read-out: t1/2 (converted)): 35.9 ± 4.6 h
- AUC(0-t) ([3]; male, human, whole blood, single IV bolus 300 μg, mean ± SD): 0.0778 ± 0.0137 µg·h/mL
- AUC(0-inf) ([3]; male, human, whole blood, single IV bolus 300 μg, mean ± SD, read-out: AUC0-inf): 0.0912 ± 0.0147 µg·h/mL
- clearance ([3]; male, human, whole blood, single IV bolus 300 μg, mean ± SD, read-out: CL (converted)): 56 mL/min
- half-life ([3]; male, human, whole blood, single IV bolus 500 μg, harmonic mean ± pseudo-standard deviation, read-out: t1/2 (converted)): 40.2 ± 7.8 h
- concentration at 5 min ([3]; male, human, whole blood, single IV bolus 500 μg, healthy males, blood, concentration at 5 minutes, mean ± SD (N = 7), read-out: C5): 0.0565 ± 0.0275 µg/mL
- AUC(0-t) ([3]; male, human, whole blood, single IV bolus 500 μg, mean ± SD): 0.146 ± 0.0324 µg·h/mL
- AUC(0-inf) ([3]; male, human, whole blood, single IV bolus 500 μg, mean ± SD, read-out: AUC0-inf): 0.162 ± 0.0296 µg·h/mL
- clearance ([3]; male, human, whole blood, single IV bolus 500 μg, mean ± SD, read-out: CL (converted)): 52.8 mL/min
- AUC(0-t) ([3]; male, human, whole blood, single IV bolus 700 μg, mean ± SD): 0.208 ± 0.0194 µg·h/mL
- AUC(0-inf) ([3]; male, human, whole blood, single IV bolus 700 μg, mean ± SD, read-out: AUC0-inf): 0.222 ± 0.0196 µg·h/mL
- AUC(0-t) ([3]; male, human, whole blood, single IV bolus 900 μg, mean ± SD): 0.241 ± 0.0192 µg·h/mL
- AUC(0-inf) ([3]; male, human, whole blood, single IV bolus 900 μg, mean ± SD, read-out: AUC0-inf): 0.254 ± 0.0176 µg·h/mL
- clearance ([3]; male, human, whole blood, single IV bolus 900 μg, mean ± SD, read-out: CL (converted)): 59.2 mL/min
- β [3, 4]: 0.027 ± 0.006 h⁻¹
- AUC0-inf/Dose [3, 4]: 0.35 ± 0.06 ng·h/mL/µg
- AUC0-last/Dose [3, 4]: 0.25 ± 0.06 ng·h/mL/µg
- C5/Dose [3, 4]: 0.13 ± 0.03 ng/mL/µg
- Vdβ [3, 4]: 113 ± 23 L
- β [3, 5]: 0.019 ± 0.002 h⁻¹
- AUC0-inf/Dose [3, 5]: 0.30 ± 0.05 ng·h/mL/µg
- AUC0-last/Dose [3, 5]: 0.26 ± 0.05 ng·h/mL/µg
- C5/Dose [3, 5]: 0.12 ± 0.03 ng/mL/µg
- Vdβ [3, 5]: 175 ± 23 L
- β [3, 6]: 0.017 ± 0.003 h⁻¹
- C5 ([3]; single IV bolus 500 μg, healthy males, blood, concentration at 5 minutes, mean ± SD (N = 7)): 56.50 ± 27.54 ng/mL
- AUC0-inf/Dose [3, 6]: 0.32 ± 0.06 ng·h/mL/µg
- AUC0-last/Dose [3, 6]: 0.29 ± 0.06 ng·h/mL/µg
- AUC(0-inf) [3, 6]: 0.16244 ± 0.00958 µg·h/mL
- C5/Dose [3, 6]: 0.11 ± 0.05 ng/mL/µg
- Vdβ [3, 6]: 190 ± 49 L
- β [3, 7]: 0.020 ± 0.001 h⁻¹
- t1/2 ([3]; single IV bolus 700 μg, harmonic mean ± pseudo-standard deviation): 35.0 ± 2.4 h
- AUC0-inf/Dose [3, 7]: 0.32 ± 0.03 ng·h/mL/µg
- AUC0-last/Dose [3, 7]: 0.30 ± 0.03 ng·h/mL/µg
- C5/Dose [3, 7]: 0.13 ± 0.01 ng/mL/µg
- CL [3, 7]: 3.18 ± 0.28 L/h
- Vdβ [3, 7]: 161 ± 15 L
- β [3, 8]: 0.018 ± 0.002 h⁻¹
- t1/2 ([3]; single IV bolus 900 μg, harmonic mean ± pseudo-standard deviation): 39.0 ± 3.9 h
- AUC0-inf/Dose [3, 8]: 0.28 ± 0.02 ng·h/mL/µg
- AUC0-last/Dose [3, 8]: 0.27 ± 0.02 ng·h/mL/µg
- C5/Dose [3, 8]: 0.12 ± 0.02 ng/mL/µg
- Vdβ [3, 8]: 202 ± 29 L
- serious adverse events ([3]; single IV doses 100-900 μg): no serious adverse events
- tolerability ([3]; healthy males): without safety concerns
- tolerability ([3]; healthy males, listed as Zotarolimus): generally well tolerated
- most common treatment-emergent adverse events ([3]; single IV doses, reported by two or more subjects in any one treatment group): injection site reaction and pain
